Reference: patent US20240409538A1, “SUBSTITUTED TRIAZOLOHETEROARYL COMPOUNDS AS USP1 INHIBITORS AND THE USE THEREOF” (IMPACT THERAPEUTICS (SHANGHAI), INC., priority 2021, published 2024)

How the values were obtained:
[1] = tested on: BRCA mutant human breast cancer MDA-MB-436 cell line; test: Growth inhibition of MDA-MB-436 cells, CTG (Celltiter-Glo) method; format: cell-based; settings: MDA-MB-436, 168 h, 7 days incubation, read-out: IC50 (nM), inhibition of proliferation of MDA-MB-436 cells, CTG method
Protocol: (§1) The cells were cultured in complete medium (DMEM medium+10% FBS+Insulin+glutathione). When the confluence reached about 80%, cells were digested and gently dispensed from the bottom of the dish with a 1 mL pipette. Cell suspension was collected and centrifuged at 500 rpm for 3 min. The supernatant was discarded, and the cell pellet were re-suspended in complete medium. The cells were seeded into a culture dish at an appropriate proportion, and then cultured in a 5% CO2 incubator at 37° C. The assay was carried out when the cells were in optimum condition and the confluence was reached 80%. Cells in the logarithmic growth phase were taken to centrifugate, and the culture supernatant was removed. The cells were resuspended in refresh complete medium and counted. The resuspended cells were seeded at 3000/well in a 96-well plate and incubated at 37° C., 5% CO2 incubator overnight. The compound was prepared as below: 1000× dilution tested compound solution to 40× test compound solution by adding 5 μL 1000× compound solution to 120 μL Medium (25-fold dilution). The solution was mixed by oscillation, 0.1% DMSO was used as the control.
(§2) The next day, the 96-well plate inoculated with cells was taken out from the incubator, and the culture supernatant was removed. Then fresh medium of 195 uL/well and 5 μL/well of 40× test compound solution as mentioned above were added into the 96 well plate, respectively. Finally, the plate was incubated for 7 days in a 37° C. 5% CO2 incubator. The medium containing compound was changed on the fourth day.
CTG Method: After 7 days, 100 μL Celltiter-Glo reagent was added to each well, and then the plate was shake for 2 minutes to fully lysate. Then the plate was incubated at room temperature for 10 minutes, and the chemiluminescence values were read by plate reader.
The inhibitory activity of compounds on cell proliferation was plotted using cell survival rate against the compound concentration as coordinates. Cell inhibition rate %=(Lumcompound−LumDMSO)/(Lummedium−LumDMSO)×100. Lum refers to the chemiluminescence value.
XL Fit software was used to Fit nonlinear s-curve regression to Fit the data to obtain dose-effect curves, from which IC50 values were calculated. Y=Bottom+(Top−Bottom)/(1+10^((Log IC50−X)×slope)), Where Y is the cell inhibition rate, X is the compound concentration, Bottom is the lowest inhibition rate. Top is the highest inhibition rate.
Table 2 summarizes the inhibitory effect data (IC50) of the compounds on the proliferation of human breast cancer cells MDA-MB-436 determined by CTG method.

USP1/UAF1 = USP1/UAF1 (Homo sapiens (Human), UniProt O94782); test: USP1/UAF1 activity, ubiquitin-rhodamine110-glycine (Ub-Rho) assay; format: biochemical; settings: 0.1 nM USP1/UAF1, 100 nM Ub-Rho, 120 minutes; read-out: IC50 (nM), inhibitory effects on USP1/UAF1 activity
Sequence of USP1/UAF1 (O94782 whole entry): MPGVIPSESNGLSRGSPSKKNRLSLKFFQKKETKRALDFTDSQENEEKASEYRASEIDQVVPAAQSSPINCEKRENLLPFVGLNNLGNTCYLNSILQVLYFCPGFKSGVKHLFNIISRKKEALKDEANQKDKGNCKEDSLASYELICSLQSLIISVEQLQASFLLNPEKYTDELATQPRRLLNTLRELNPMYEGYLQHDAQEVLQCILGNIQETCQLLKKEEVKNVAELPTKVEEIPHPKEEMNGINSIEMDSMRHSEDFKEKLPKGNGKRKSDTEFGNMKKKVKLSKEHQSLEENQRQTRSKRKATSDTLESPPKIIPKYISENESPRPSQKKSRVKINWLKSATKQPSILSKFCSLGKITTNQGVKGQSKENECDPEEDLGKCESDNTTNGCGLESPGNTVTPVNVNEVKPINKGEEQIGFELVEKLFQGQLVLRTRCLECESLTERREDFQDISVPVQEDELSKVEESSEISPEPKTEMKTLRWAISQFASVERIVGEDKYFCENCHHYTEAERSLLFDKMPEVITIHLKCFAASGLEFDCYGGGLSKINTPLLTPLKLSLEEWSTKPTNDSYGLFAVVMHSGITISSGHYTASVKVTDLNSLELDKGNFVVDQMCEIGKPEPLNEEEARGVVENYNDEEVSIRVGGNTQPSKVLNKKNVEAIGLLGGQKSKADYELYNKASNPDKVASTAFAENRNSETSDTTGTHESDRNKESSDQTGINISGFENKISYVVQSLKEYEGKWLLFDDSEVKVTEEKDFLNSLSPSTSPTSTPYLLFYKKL
Sequence of USP1/UAF1 (Q8TAF3 whole entry partner): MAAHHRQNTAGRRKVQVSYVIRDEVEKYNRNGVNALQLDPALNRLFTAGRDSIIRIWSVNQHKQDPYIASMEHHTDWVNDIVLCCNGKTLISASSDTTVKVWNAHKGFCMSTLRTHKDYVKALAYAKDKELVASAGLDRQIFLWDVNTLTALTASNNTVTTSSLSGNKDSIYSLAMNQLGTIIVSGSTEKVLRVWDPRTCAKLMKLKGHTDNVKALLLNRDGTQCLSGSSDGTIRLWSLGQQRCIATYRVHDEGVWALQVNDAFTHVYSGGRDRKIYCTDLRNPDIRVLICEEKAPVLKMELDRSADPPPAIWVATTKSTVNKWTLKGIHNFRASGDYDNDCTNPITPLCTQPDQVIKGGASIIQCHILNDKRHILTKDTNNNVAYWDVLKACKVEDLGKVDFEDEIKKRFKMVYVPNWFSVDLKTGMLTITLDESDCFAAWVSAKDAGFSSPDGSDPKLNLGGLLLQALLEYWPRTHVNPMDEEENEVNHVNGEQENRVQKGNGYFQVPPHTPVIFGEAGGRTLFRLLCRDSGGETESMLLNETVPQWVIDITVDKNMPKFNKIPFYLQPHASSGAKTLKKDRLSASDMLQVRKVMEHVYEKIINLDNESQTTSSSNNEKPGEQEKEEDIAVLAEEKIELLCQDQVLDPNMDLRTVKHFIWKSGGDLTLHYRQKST
Protocol: USP1/UAF1 activity was determined by using ubiquitin-rhodamine110-glycine (Ub-Rho; Boston Biochem) assay. Enzymatic reactions were conducted in an assay buffer (50 mM Tris-HCl, pH 7.8, 0.5 mM EDTA, 100 mM NaCl, 1 mM DTT, 0.01 BSA, and 0.01% Tween-20) that contained 0.1 nM USP1/UAF1. Each individual compound was tested at ten concentrations in the range of 0.0005 to 10 μM. The plates were incubated for 15 min to attain equilibrium, and then the enzymatic reaction was initiated by dispensing 10 μL of Ub-Rho solution (100 nM final concentration). After treating 120 minutes with Ub-Rho solution, the rhodamine fluorescence was acquired using a 480 nm excitation/540 nm emission filter set by using Envision instrument. The inhibition rate of the compound to USP1/UAF1 enzyme activity was calculated according to the following formula.
IC50 value is obtained by fitting the s-shaped dose response curve equation by using XL Fit software. The curve equation is Y=100/(1+10^(log C−log IC50)). C is the compound concentration.

[2] = tested on: BRCA mutant human breast cancer MDA-MB-436 cell line; test: Growth inhibition of MDA-MB-436 cells, CCK-8 method; format: cell-based; settings: MDA-MB-436, 168 h, 7 days incubation, read-out: IC50 (nM), inhibition of proliferation of MDA-MB-436 cells, CCK-8 method
Protocol: as §1, §2
CCK Method: After 7 days, 20 μL of CCK-8 was added to each well and shaken gently, then was cultured for 4 hours. The plate was shaken for 5 min after incubation, the absorbance values of 450 nm or 650 nm wavelengths were recorded respectively (OD=absorbance value of 450 nm−absorbance value of 650 nm) by using the multifunction readout instrument.
Data were analyzed by software GraphPad Prism 6.0. The inhibitory activity of compounds on cell proliferation was plotted using cell survival rate against the compound concentration as coordinates. Cell survival rate %=(ODcompound−ODbackground)/(ODDMSO−ODbackground)×100. The IC50 value was fitted by the s-shaped dose response curve equation: Y=100/(1+10^(log C−log IC50)), and C was the compound concentration.
Table 3 summarizes the inhibitory effect data (IC50) of the compounds on the proliferation of human breast cancer cells MDA-MB-436 determined by CCK-8 method.

IC50 [1]	IC50 (USP1/UAF1)	IC50 [2]	SMILES
161 nM	–	–	Cc1cn(C)c(-c2ccc(Cc3cccn4nc(-c5ccccc5C(C)C)nc34)cc2)n1 [Example 1, 8-(4-(1,4-dimethyl-1H-imidazol-2-yl)benzyl)-2-(2-isopropylphenyl)-[1,2,4]triazolo[1,5-a]pyridine]
> 1000 nM	–	–	COc1ccccc1-c1nc2c(Cc3ccc(-c4nc(C)cn4C)cc3)cccn2n1 [Example 2, 8-(4-(1,4-dimethyl-1H-imidazol-2-yl)benzyl)-2-(2-methoxyphenyl)-[1,2,4]triazolo[1,5-a]pyridine]
–	66.6 nM	25.5 nM	COc1ncnc(C2CC2)c1-c1nc2c(Cc3ccc(-c4nc(C(F)(F)F)cn4C(C)C)cc3)cccn2n1 [Example 4, 2-(4-cyclopropyl-6-methoxypyrimidin-5-yl)-8-(4-(1-isopropyl-4-(trifluoromethyl)-1H-imidazol-2-yl)benzyl)-[1,2,4]triazolo[1,5-a]pyridine]
–	39.1 nM	38.8 nM	COc1ncnc(C2CC2)c1-c1nc2c(Cc3ccc(-c4nc(C(F)(F)F)cn4C)cc3)cccn2n1 [Example 5, 2-(4-cyclopropyl-6-methoxypyrimidin-5-yl)-8-(4-(1-methyl-4-(trifluoromethyl)-1H-imidazol-2-yl)benzyl)-[1,2,4]triazolo[1,5-a]pyridine]
–	460 nM	28.3 nM	COc1ncnc(C2CC2)c1-c1nc2c(Cc3ccc(-n4nc(C(F)(F)F)cc4C)cc3)cccn2n1 [Example 6, 2-(4-cyclopropyl-6-methoxypyrimidin-5-yl)-8-(4-(5-methyl-3-(trifluoromethyl)-1H-pyrazol-1-yl)benzyl)-[1,2,4]triazolo[1,5-a]pyridine]
–	15.8 nM	13.2 nM	Cc1cnn(C(C)C)c1-c1nc2c(Cc3ccc(-c4nc(C(F)(F)F)cn4C)cc3)cccn2n1 [Example 16, 2-(1-isopropyl-4-methyl-1H-pyrazol-5-yl)-8-(4-(1-methyl-4-(trifluoromethyl)-1H-imidazol-2-yl)benzyl)-[1,2,4]triazolo[1,5-a]pyridine]
–	–	39.5 nM	Cc1cnn(C(C)C)c1-c1nc2c(Cc3ccc(-c4nc(C(F)(F)F)cn4C)cc3)ccnn2n1 [Example 17, 2-(1-isopropyl-4-methyl-1H-pyrazol-5-yl)-8-(4-(1-methyl-4-(trifluoromethyl)-1H-imidazol-2-yl)benzyl)-[1,2,4]triazolo[1,5-b]pyridazine]
–	138 nM	44.8 nM	COc1ncnc(C2CC2)c1-c1nc2c(Cc3ccc(-c4nc(C(F)(F)F)cn4C)cc3)cncn2n1 [Example 19, 2-(4-cyclopropyl-6-methoxypyrimidin-5-yl)-8-(4-(1-methyl-4-(trifluoromethyl)-1H-imidazol-2-yl)benzyl)-[1,2,4]triazolo[1,5-c]pyrimidine]
227 nM	147 nM	–	COc1ncnc(C2CC2)c1-c1nc2cncc(Cc3ccc(-c4nc(C(F)(F)F)cn4C)cc3)n2n1 [Example 22, 2-(4-cyclopropyl-6-methoxypyrimidin-5-yl)-5-(4-(1-methyl-4-(trifluoromethyl)-1H-imidazol-2-yl)benzyl)-[1,2,4]triazolo[1,5-a]pyrazine]
496 nM	175 nM	–	COc1ncnc(C2CC2)c1-c1nc2nccc(Cc3ccc(-c4nc(C(F)(F)F)cn4C)cc3)n2n1 [Example 23, 2-(4-cyclopropyl-6-methoxypyrimidin-5-yl)-7-(4-(1-methyl-4-(trifluoromethyl)-1H-imidazol-2-yl)benzyl)-[1,2,4]triazolo[1,5-a]pyrimidine]
158 nM	–	–	COc1ncnc(OC)c1-c1nc2c(Cc3ccc(-c4nc(C(F)(F)F)cn4C)cc3)cccn2n1 [Example 27, 2-(4,6-dimethoxypyrimidin-5-yl)-8-(4-(1-methyl-4-(trifluoromethyl)-1H-imidazol-2-yl)benzyl)-[1,2,4]triazolo[1,5-a]pyridine]
40.6 nM	26 nM	–	COc1ncnc(C2CCC2)c1-c1nc2c(Cc3ccc(-c4nc(C(F)(F)F)cn4C)cc3)cccn2n1 [Example 28, 2-(4-cyclobutyl-6-methoxypyrimidin-5-yl)-8-(4-(1-methyl-4-(trifluoromethyl)-1H-imidazol-2-yl)benzyl)-[1,2,4]triazolo[1,5-a]pyridine]
